In patent US8486594B2, “P-terphenyl compound mixture and electrophotographic photoreceptors made by using the same” (Hodogaya Chemical Co., Ltd., priority 2006, dated 2013):

Legend:
[1] = Solubility in organic solvent (tetrahydrofuran); format: physicochemical; details: 25° C. tetrahydrofuran; % (weight/volume)
From the text: [Solubility in Organic Solvent]
The unit of solubility is % (weight/volume).

[2] = Dissolution of charge-transporting agent in tetrahydrofuran solution of polycarbonate resin for charge-transporting layer; format: physicochemical; details: 12.2% tetrahydrofuran solution of polycarbonate resin (Yupilon Z), ultrasonic wave
Experimental: The p-terphenyl compound mixture was completely dissolved by propagating an ultrasonic wave thereto. This solution was applied to the charge-generating layer with a wire-wound bar and dried at 110° C. and ordinary pressure for […] to form a charge-transporting layer having a thickness of 20 μm. Thus, Photoreceptor No. 1 was produced.
Photoreceptor No. 6 was produced in the same manner as in Photoreceptor Example 1, except that the p-terphenyl compound singly synthesized as Compound No. 6 was used in place of the charge-transporting agent used in Photoreceptor Example 1.
Photoreceptor No. 7 was produced in the same manner as in Photoreceptor Example 1, except that the p-terphenyl compound singly synthesized as Compound No. 9 was used in place of the charge-transporting agent used in Photoreceptor Example 1.
The p-terphenyl compound mixture was completely dissolved by propagating an ultrasonic wave thereto. This solution was applied to the charge-generating layer with a wire-wound bar and dried at 110° C. and ordinary pressure for 30 minutes to form a charge-transporting layer having a thickness of 10 μm. Furthermore, a semitransparent metal electrode was formed on the charge-transporting layer by vapor deposition to produce Photoreceptor No. 8. […]

| Solubility in tetrahydrofuran [1] [%] | dissolution of charge-transporting agent in coating solution [2] | SMILES |
| --- | --- | --- |
| 25.0 |  | Cc1ccc(N(c2ccccc2)c2ccc(-c3ccc(-c4ccc(N(c5ccccc5)c5ccc(C)cc5)cc4)cc3)cc2)cc1 [Compound No. 1, 4,4′-bis(4-methyldiphenylamino)-p-terphenyl] |
| 10.0 |  | Cc1ccc(N(c2ccccc2)c2ccc(-c3ccc(-c4ccc(N(c5ccccc5)c5ccc(C)cc5C)cc4)cc3)cc2)c(C)c1 [Compound No. 4, 4,4′-bis(2,4-dimethyldiphenylamino)-p-terphenyl] |
| 2.0 | did not dissolve | Cc1ccc(N(c2ccc(C)cc2)c2ccc(-c3ccc(-c4ccc(N(c5ccc(C)cc5)c5ccc(C)cc5)cc4)cc3)cc2)cc1 [Compound No. 6, 4,4′-bis(4,4′-dimethyldiphenylamino)-p-terphenyl] |
| 2.0 | did not dissolve | c1ccc(N(c2ccccc2)c2ccc(-c3ccc(-c4ccc(N(c5ccccc5)c5ccccc5)cc4)cc3)cc2)cc1 [Compound No. 9, 4,4′-bis(diphenylamino)-p-terphenyl] |
